Assay: recombinant barcode read abundance after kanamycin selection (control-corrected) (log10(CPM+1)); higher = more efficient recombination; sequences stand for … in AGTGCAGAGAAAATCGGCCAGTTTTCTCTGCCTGCAGTCCGCATGCCGT…AGATTTATGCAGCGGACTGCCTTTCTCCCAAAGTGATAAACCGGACAGTATCATGGACCGGTTTTCCCGGTAATCCGTATTTGCAAGGTTGGTTTCACT; site = the 11-nt target
Outline: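 Values are log10(CPM+1) from a pooled E. coli screen of targets paired with IS621 bridge RNA target-binding loops. Recombination efficiency here means counts per million of recombinant-junction barcodes, averaged and control-corrected. Plates were chloramphenicol/ampicillin LB agar for the control and chloramphenicol/ampicillin/kanamycin with 0.1 mM IPTG, two replicates each.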
In the case of “TAGCCTGCTTGGGTTCTAACCTGTTGCCT (site TAGCCTGCTAG)”, the “recombinant barcode read abundance (log10)” value is reported as 1.35. For “TAGCCTGCTTGGGTTCTAACCTGTTGCCT (site TAGGCTGCTAG)”, the “recombinant barcode read abundance (log10)” value was 0.026. In the case of “TAGCCTGCTTGGGTTCTAACCTGTTGCCT (site TAGTCTGCTAG)”, the “recombinant barcode read abundance (log10)” value is reported as 0.177. In the case of “TAGCGCACTTGGGTTCTAACCTGTTGCGG (site TAGCACACTCC)”, the “recombinant barcode read abundance (log10)” value is reported as 0.28. In the case of “TAGCGCACTTGGGTTCTAACCTGTTGCGG (site TAGCCCACTCC)”, the “recombinant barcode read abundance (log10)” value is reported as 0.076. With “TAGCGCACTTGGGTTCTAACCTGTTGCGG (site TAGCGCACTCC)” the “recombinant barcode read abundance (log10)” value was 1.33. In the case of “TAGCGCACTTGGGTTCTAACCTGTTGCGG (site TAGCTCACTCC)”, the “recombinant barcode read abundance (log10)” value is reported as 0.13. For “TAGCGGCCTTGGGTTCTAACCTGTTGCCT (site TAACGGCCTAG)”, the “recombinant barcode read abundance (log10)” value was 0.651. In the case of “TAGCGGCCTTGGGTTCTAACCTGTTGCCT (site TACCGGCCTAG)”, the “recombinant barcode read abundance (log10)” value is reported as 0.0223. With “TAGCGGCCTTGGGTTCTAACCTGTTGCCT (site TAGCGGCCTAG)” the “recombinant barcode read abundance (log10)” value was 0.428. In the case of “TAGCGGCCTTGGGTTCTAACCTGTTGCCT (site TATCGGCCTAG)”, the “recombinant barcode read abundance (log10)” value is reported as 0.0926. For “TAGCGTACTTGGGTTCTAACCTGTTGCGT (site TAGCGTACTAC)”, the “recombinant barcode read abundance (log10)” value was 0.805. For “TAGCGTACTTGGGTTCTAACCTGTTGCGT (site TAGCGTACTCC)”, the “recombinant barcode read abundance (log10)” value was 0.0572. In the case of “TAGCTCCCTTGGGTTCTAACCTGTTGCCC (site TAGCTCCCTAG)”, the “recombinant barcode read abundance (log10)” value is reported as 0.279. With “TAGCTCCCTTGGGTTCTAACCTGTTGCCC (site TAGCTCCCTCG)” the “recombinant barcode read abundance (log10)” value was 0.115. In the case of “TAGCTCCCTTGGGTTCTAACCTGTTGCCC (site TAGCTCCCTGG)”, the “recombinant barcode read abundance (log10)” value is reported as 0.872. In the case of “TAGCTCCCTTGGGTTCTAACCTGTTGCCC (site TAGCTCCCTTG)”, the “recombinant barcode read abundance (log10)” value is reported as 0.0924. With “TAGCTGACTTGGGTTCTAACCTGTTGCCC (site GTTTGACCTCC)” the “recombinant barcode read abundance (log10)” value was 0.136. With “TAGCTGACTTGGGTTCTAACCTGTTGCCC (site TAGCTGACTGG)” the “recombinant barcode read abundance (log10)” value was 0.932. In the case of “TAGCTGTCTTGGGTTCTAACCTGTTGCGT (site AATCTGTCTAC)”, the “recombinant barcode read abundance (log10)” value is reported as 0.106. In the case of “TAGCTGTCTTGGGTTCTAACCTGTTGCGT (site TAGCTGTCTAC)”, the “recombinant barcode read abundance (log10)” value is reported as 2.29. With “TAGGATACTTGGGTTCTAACCTGTTGCAC (site TAGGATACTAT)” the “recombinant barcode read abundance (log10)” value was 0.34. In the case of “TAGGATACTTGGGTTCTAACCTGTTGCAC (site TAGGATACTCT)”, the “recombinant barcode read abundance (log10)” value is reported as 0.729. For “TAGGATACTTGGGTTCTAACCTGTTGCAC (site TAGGATACTGT)”, the “recombinant barcode read abundance (log10)” value was 2.08. In the case of “TAGGATACTTGGGTTCTAACCTGTTGCAC (site TAGGATACTTT)”, the “recombinant barcode read abundance (log10)” value is reported as 0.107. In the case of “TAGGATACTTGGGTTCTAACCTGTTGCAG (site TAGGATACTAT)”, the “recombinant barcode read abundance (log10)” value is reported as 0.29. For “TAGGATACTTGGGTTCTAACCTGTTGCAG (site TAGGATACTCT)”, the “recombinant barcode read abundance (log10)” value was 2.5. In the case of “TAGGATACTTGGGTTCTAACCTGTTGCAG (site TAGGATACTGT)”, the “recombinant barcode read abundance (log10)” value is reported as 0.106. In the case of “TAGGATACTTGGGTTCTAACCTGTTGCAG (site TAGGATACTTT)”, the “recombinant barcode read abundance (log10)” value is reported as 0.351. For “TAGGATACTTGGGTTCTAACCTGTTGCAT (site TAGGATACTAT)”, the “recombinant barcode read abundance (log10)” value was 1.55. For “TAGGATACTTGGGTTCTAACCTGTTGCAT (site TAGGATACTCT)”, the “recombinant barcode read abundance (log10)” value was 0.583. For “TAGGATACTTGGGTTCTAACCTGTTGCAT (site TAGGATACTGT)”, the “recombinant barcode read abundance (log10)” value was 0.0987. With “TAGGATACTTGGGTTCTAACCTGTTGCAT (site TAGGATACTTT)” the “recombinant barcode read abundance (log10)” value was 0.0945. With “TAGGATACTTGGGTTCTAACCTGTTGCGT (site TAGGAAACTAC)” the “recombinant barcode read abundance (log10)” value was 0.314. In the case of “TAGGATACTTGGGTTCTAACCTGTTGCGT (site TAGGACACTAC)”, the “recombinant barcode read abundance (log10)” value is reported as 0.928. In the case of “TAGGATACTTGGGTTCTAACCTGTTGCGT (site TAGGAGACTAC)”, the “recombinant barcode read abundance (log10)” value is reported as 0.266. With “TAGGATACTTGGGTTCTAACCTGTTGCGT (site TAGGATACTAC)” the “recombinant barcode read abundance (log10)” value was 3.02. With “TAGGATCCTTGGGTTCTAACCTGTTGCGA (site ACCCGCTCTAG)” the “recombinant barcode read abundance (log10)” value was 0.205. For “TAGGATCCTTGGGTTCTAACCTGTTGCGA (site TAGGATCCTTC)”, the “recombinant barcode read abundance (log10)” value was 2.71. With “TAGGATTCTTGGGTTCTAACCTGTTGCCT (site TAATATTCTAG)” the “recombinant barcode read abundance (log10)” value was 0.0335. In the case of “TAGGATTCTTGGGTTCTAACCTGTTGCCT (site TAGGATTCTAG)”, the “recombinant barcode read abundance (log10)” value is reported as 1.88. In the case of “TAGGCGCCTTGGGTTCTAACCTGTTGCCT (site TAGGCGCCTAA)”, the “recombinant barcode read abundance (log10)” value is reported as 0.173. For “TAGGCGCCTTGGGTTCTAACCTGTTGCCT (site TAGGCGCCTAC)”, the “recombinant barcode read abundance (log10)” value was 0.0375. For “TAGGCGCCTTGGGTTCTAACCTGTTGCCT (site TAGGCGCCTAG)”, the “recombinant barcode read abundance (log10)” value was 0.252. For “TAGGCGCCTTGGGTTCTAACCTGTTGCCT (site TAGGCGCCTAT)”, the “recombinant barcode read abundance (log10)” value was 0.235. In the case of “TAGGCTACTTGGGTTCTAACCTGTTGCAA (site TAGGCTACTAT)”, the “recombinant barcode read abundance (log10)” value is reported as 0.144. For “TAGGCTACTTGGGTTCTAACCTGTTGCAA (site TAGGCTACTCT)”, the “recombinant barcode read abundance (log10)” value was 0.0112. With “TAGGCTACTTGGGTTCTAACCTGTTGCAA (site TAGGCTACTGT)” the “recombinant barcode read abundance (log10)” value was 1.49. For “TAGGCTACTTGGGTTCTAACCTGTTGCAA (site TAGGCTACTTT)”, the “recombinant barcode read abundance (log10)” value was 1.33. With “TAGGCTACTTGGGTTCTAACCTGTTGCAC (site TAGGCTACTAT)” the “recombinant barcode read abundance (log10)” value was 0.147. In the case of “TAGGCTACTTGGGTTCTAACCTGTTGCAC (site TAGGCTACTCT)”, the “recombinant barcode read abundance (log10)” value is reported as 0.131. With “TAGGCTACTTGGGTTCTAACCTGTTGCAC (site TAGGCTACTGT)” the “recombinant barcode read abundance (log10)” value was 1.19. In the case of “TAGGCTACTTGGGTTCTAACCTGTTGCAC (site TAGGCTACTTT)”, the “recombinant barcode read abundance (log10)” value is reported as 0.00761. In the case of “TAGGCTACTTGGGTTCTAACCTGTTGCCA (site ACCCAATCTGT)”, the “recombinant barcode read abundance (log10)” value is reported as 0.0662. For “TAGGCTACTTGGGTTCTAACCTGTTGCCA (site TAGGCTACTTG)”, the “recombinant barcode read abundance (log10)” value was 0.129. In the case of “TAGGCTCCTTGGGTTCTAACCTGTTGCAG (site TAGGCTCCTAT)”, the “recombinant barcode read abundance (log10)” value is reported as 0.271. With “TAGGCTCCTTGGGTTCTAACCTGTTGCAG (site TAGGCTCCTCT)” the “recombinant barcode read abundance (log10)” value was 0.429. In the case of “TAGGCTCCTTGGGTTCTAACCTGTTGCAG (site TAGGCTCCTGT)”, the “recombinant barcode read abundance (log10)” value is reported as 0.0237. With “TAGGCTCCTTGGGTTCTAACCTGTTGCAG (site TAGGCTCCTTT)” the “recombinant barcode read abundance (log10)” value was 0.0834. For “TAGGCTGCTTGGGTTCTAACCTGTTGCCT (site TAGACTGCTAG)”, the “recombinant barcode read abundance (log10)” value was 0.359. For “TAGGCTGCTTGGGTTCTAACCTGTTGCCT (site TAGCCTGCTAG)”, the “recombinant barcode read abundance (log10)” value was 0. In the case of “TAGGCTGCTTGGGTTCTAACCTGTTGCCT (site TAGGCTGCTAG)”, the “recombinant barcode read abundance (log10)” value is reported as 0.177. With “TAGGCTGCTTGGGTTCTAACCTGTTGCCT (site TAGTCTGCTAG)” the “recombinant barcode read abundance (log10)” value was 0.519. For “TAGGTTCCTTGGGTTCTAACCTGTTGCAT (site TAGGTACCTAT)”, the “recombinant barcode read abundance (log10)” value was 0.795. With “TAGGTTCCTTGGGTTCTAACCTGTTGCAT (site TAGGTCCCTAT)” the “recombinant barcode read abundance (log10)” value was 0.335. With “TAGGTTCCTTGGGTTCTAACCTGTTGCAT (site TAGGTGCCTAT)” the “recombinant barcode read abundance (log10)” value was 0.6. In the case of “TAGGTTCCTTGGGTTCTAACCTGTTGCAT (site TAGGTTCCTAT)”, the “recombinant barcode read abundance (log10)” value is reported as 1.04. In the case of “TAGTACCCTTGGGTTCTAACCTGTTGCAT (site TAGTACCCTAT)”, the “recombinant barcode read abundance (log10)” value is reported as 0.43. In the case of “TAGTACCCTTGGGTTCTAACCTGTTGCAT (site TAGTACCCTCT)”, the “recombinant barcode read abundance (log10)” value is reported as 0.0976. For “TAGTACCCTTGGGTTCTAACCTGTTGCAT (site TAGTACCCTGT)”, the “recombinant barcode read abundance (log10)” value was 0.0568. With “TAGTACCCTTGGGTTCTAACCTGTTGCAT (site TAGTACCCTTT)” the “recombinant barcode read abundance (log10)” value was 0.227. With “TAGTAGTCTTGGGTTCTAACCTGTTGCCT (site TAGTAGTCTAA)” the “recombinant barcode read abundance (log10)” value was 0.0538. With “TAGTAGTCTTGGGTTCTAACCTGTTGCCT (site TAGTAGTCTAC)” the “recombinant barcode read abundance (log10)” value was 0.0503. For “TAGTAGTCTTGGGTTCTAACCTGTTGCCT (site TAGTAGTCTAG)”, the “recombinant barcode read abundance (log10)” value was 1.64. In the case of “TAGTAGTCTTGGGTTCTAACCTGTTGCCT (site TAGTAGTCTAT)”, the “recombinant barcode read abundance (log10)” value is reported as 0.108. In the case of “TAGTATCCTTGGGTTCTAACCTGTTGCCA (site TACTACCCTTG)”, the “recombinant barcode read abundance (log10)” value is reported as 0.142. For “TAGTATCCTTGGGTTCTAACCTGTTGCCA (site TAGTATCCTTG)”, the “recombinant barcode read abundance (log10)” value was 0.146.

Source: the supplement of paper PMC11208160
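Further: IS621 recombinase and bridge RNA in Escherichia coli cells.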
